The text below walks through data of patent publication US8188089B2, “Tylophorine analogs as antitumor agents” (The University of North Carolina at Chapel Hill, priority 2006, dated 2012).

What is called melting point is the temperature, or range, at which the solid turns liquid.

Series [1] relates to DU-145 (prostate). In words: Cell growth inhibition assay (SRB), Example 2, DU-145. Format: cell-based, human. The settings on record: Table 6, 72-h continuous treatment. From the text:
(§1) Drug-Resistance Study. Twelve active compounds [including four hydrochloride salts (18b, 22b, 24b, 32b) of corresponding active free bases (18a, 22a, 24a, 32a)] were further screened against an extended panel of human tumor cell lines including DU-145 (prostate), ZR-751 (breast), KB (nasopharyngeal), and KB-VIN (multidug-resistant KB subline) in order to explore their antitumor spectra and drug-resistance profiles. Four compounds were used as reference compounds. Antofine is a positional isomer of tylophorine isolated from Asclepiadaceae by Dr. T. S. Wu in Taiwan (Wu, P. L. et al., Heterocycles 2002; 57:2401). […] Doxorubicin (Adriamycin), vincristine, and etoposide (VP-16, Vepesid®) are widely used anticancer agents for treating a range of solid tumors.
(§2) Cell Growth Inhibition Assay. The sulforhodamine B assay was used according to the procedures developed and validated at NCI. The in vitro anticancer activities are expressed as ED50 values, which is the test compound concentration (μM) that reduced the cell number by 50% after 72-h of continuous treatment. The values were interpolated from dose-response data. Each test was performed in triplicate with variation less than 5%. The ED50 values determined in each of independent tests varied less than 10%. Compound stock solutions were prepared in DMSO with the final solvent concentration ≦1% DMSO (v/v), a concentration without effect on cell replication. The cells were cultured at 37° C. in RPMI-1640 supplemented with 25 mM N-2-hydroxyethylpiperazine-N′-2-ethanesulfonic acid (HEPES), […], 10% (v/v) fetal bovine serum, and 100 μg/mL kanamycin in a humidified atmosphere containing 5% CO2.

In series [2] the test system is human A549 lung cancer cell line. Put plainly: Cell growth inhibition assay (SRB), Example 2, A549. Format: cell-based. From the text: Cell Growth Inhibition Assay. The sulforhodamine B assay was used according to the procedures developed and validated at NCI. […] The values were interpolated from dose-response data.
In series [3] the test system is KB (nasopharyngeal). In words: Cell growth inhibition assay (SRB), Example 2, KB. Format: cell-based, human. The settings on record: Table 6, 72-h continuous treatment.
Source text: as §1, §2

Series [4] deals with KB-VIN (multidug-resistant KB subline). In words: Cell growth inhibition assay (SRB), Example 2, KB-VIN. Format: cell-based, human. The following applies: Table 6, 72-h continuous treatment.
Source text: as §1, §2

Series [5] relates to ZR-751 (breast). Put plainly: Cell growth inhibition assay (SRB), Example 2, ZR-751. It is filed as cell-based, human. The following applies: Table 6, 72-h continuous treatment.
Source text: as §1, §2

The test system of series [6] is human A549 lung cancer cell line. Put plainly: Cell growth inhibition assay (SRB), Example 1. It is filed as cell-based. The settings on record: Homo sapiens; table footnotes of Example 1; A549. From the text: Results and discussion. […] Etoposide (VP-16) was used as the reference compound.
Cell Growth Inhibition Assay. The human A549 lung cancer cell line was used for the cytotoxicity screening of PBT derivatives using the cell-based sulforhodamine B (SRB) microtitre plate assay. […] Duration of compound exposure was 3 days.

The test system of series [7] is tumor cell line panel (A549, KB, DU-145, ZR-751, KB-VIN). In words: Cytotoxic activity against the whole tumor cell line panel. The settings on record: all cell lines of the panel; read-out: ED50 values against the tumor cell line panel. Format: cell-based, human.
Source text: as §1
Cell Growth Inhibition Assay. The sulforhodamine B assay was used according to the procedures developed and validated at NCI. The in vitro anticancer activities are expressed as ED50 values, which is the test compound concentration (μM) that reduced the cell number by 50% after 72-h of continuous treatment. The values were interpolated from dose-response data. Each test was performed in triplicate with variation less than 5%. The ED50 values determined in each of independent tests varied less than 10%. […]

The mark [8] stands for this setting: Homo sapiens, A549, 72 h, Table 4, ED50, 72-h continuous treatment, NA = not active, read-out: A549 (μM), in vitro anticancer activity against A549 lung cancer cells.
The mark [9] stands for this setting: Homo sapiens, A549, 72 h, Table 6, 72-h continuous treatment, read-out: EC50 (μM) A549.
Where [10] appears, read: Table 6, 72-h continuous treatment, hydrochloride, read-out: EC50 (μM) A549.

SMILES strings stand for the structures. Counter-ions that a name gives are not always drawn.

The compound `COc1ccc2c(CN3CCC(CCO)CC3)cc3cc4c(cc3c2c1)OCO4` [Compound 32a, N-(2,3-Methylenedioxy-6-methoxy-phenanthr-9-ylmethyl)-4-piperidineethanol] displayed a melting point of 148 to 149 °C. The compound also came in with an EC50 in series [1] (Homo sapiens, DU-145, 72 h) of 0.15 µM. Moreover, the EC50 in series [2] (setting [8]) is 0.15 µM. Moreover, the EC50 in series [2] (setting [9]) is 0.15 µM. In series [3], this compound had an EC50 of 0.42 µM. Also, the EC50 in series [4] worked out at 0.5 µM. For the same compound, the EC50 in series [5] (Homo sapiens, ZR-75-1, 72 h) was found to be 0.03 µM.
With `COc1ccc2c(CN3CCC(CCO)CC3)cc3cc4c(cc3c2c1)OCO4.Cl` [Compound 32b, N-(2,3-Methylenedioxy-6-methoxy-phenanthr-9-ylmethyl)-4-piperidineethanol hydrochloride], the melting point was 153 to 155 °C. In series [1] (hydrochloride), the EC50 came to 0.1 µM. Moreover, the EC50 in series [2] (setting [10]) turned out to be 0.09 µM. This compound had an EC50 in series [3] (hydrochloride) of 0.2 µM. In series [4] (hydrochloride), this compound displayed an EC50 of 0.2 µM. Also, the EC50 in series [5] (hydrochloride) worked out at 0.02 µM.
In the case of `COc1ccc2c(CNCCCCCCO)cc3cc4c(cc3c2c1)OCO4` [Compound 22a, N-(2,3-Methylenedioxy-6-methoxy-phenanthr-9-ylmethyl)-6-aminohexanol], the melting point was in the range of 145 to 147 °C. This compound also displayed an EC50 in series [1] (Homo sapiens, DU-145, 72 h) of 0.04 µM. The EC50 in series [2] (setting [8]) turned out to be 0.2 µM. The EC50 in series [2] (setting [9]) was 0.16 µM. In addition, in series [3] (Homo sapiens, 72 h), the EC50 came out at 0.25 µM. Further, the EC50 in series [4] was found to be 0.35 µM. Besides, the EC50 in series [5] (Homo sapiens, ZR-75-1, 72 h) turned out to be 0.13 µM.
On to `COc1cc([C@@H]2c3cc4c(cc3[C@@H](O[C@@H]3O[C@@H]5CO[C@@H](C)O[C@H]5[C@H](O)[C@H]3O)[C@H]3COC(=O)[C@H]23)OCO4)cc(OC)c1O` [Etoposide (VP-16), Etoposide, reference compound], for which the EC50 was 1400 nM in series [6]; 2.4 µM in series [1] (Homo sapiens, DU-145, 72 h); 1.4 µM in series [2] (setting [8]); 1.4 µM in series [2] (setting [9]); 4.8 µM in series [3] (Homo sapiens, 72 h); over 10 µM in series [4] (Homo sapiens, KBVIN, 72 h). The EC50 in series [5] (Homo sapiens, ZR-75-1, 72 h) came out at 3.1 µM.
As to `COc1ccc2c(CN3CCC(CO)CC3)cc3cc4c(cc3c2c1)OCO4` [Compound 24b, N-(2,3-Methylenedioxy-6-methoxy-phenanthr-9-ylmethyl)-L-4-piperidinemethanol hydrochloride], the EC50 in series [1] (hydrochloride) is 0.05 µM; in series [7] it was under 100 nM; in series [2] (setting [10]) it was 0.07 µM; in series [3] (hydrochloride), 0.07 µM; in series [4] (hydrochloride), 0.04 µM; in series [5] (hydrochloride) it was 0.04 µM.
Take `COc1ccc2c(CNCCCCCCO)cc3cc4c(cc3c2c1)OCO4.Cl` [Compound 22b, N-(2,3-Methylenedioxy-6-methoxy-phenanthr-9-ylmethyl)-6-aminohexanol hydrochloride]: the melting point lay within 187 to 188 °C. Further, in series [1] (hydrochloride), the EC50 was found to be 0.07 µM. Further, the EC50 in series [2] (setting [10]) was found to be 0.13 µM. This compound also came in with an EC50 in series [3] (hydrochloride) of 0.23 µM. Also, the EC50 in series [4] (hydrochloride) turned out to be 0.16 µM. Besides, the EC50 in series [5] (hydrochloride) was 0.08 µM.
In the case of `COc1cccc2c1C(=O)c1c(O)c3c(c(O)c1C2=O)C[C@@](O)(C(=O)CO)C[C@@H]3O[C@H]1C[C@H](N)[C@H](O)[C@H](C)O1` [Doxorubicin, reference compound], the EC50 in series [1] (Homo sapiens, DU-145, 72 h) was 0.13 µM; in series [2] (setting [8]), 0.18 µM; in series [2] (setting [9]), 0.18 µM; in series [3] (Homo sapiens, 72 h), 0.18 µM; in series [4] (Homo sapiens, KBVIN, 72 h), over 4 µM; in series [5] (Homo sapiens, ZR-75-1, 72 h) it was 0.04 µM.
